Series [1] is filed under the species Mus musculus. As to the kind of experiment: animal or person. Format: functional.
Series [2] addresses Mitogen-activated protein kinase 14 (Homo sapiens, UniProt Q16539).
For series [3], the species on record is Homo sapiens. As to the kind of experiment: tissue or blood.
The species named for series [4] is Mus musculus. Nature of the series: animal or person. It counts as functional. This is another data set of the same source.
The species entered for series [5] is Mus musculus. As to the kind of experiment: animal or person. It counts as functional. This is another data set of the same source.
Series [6] in a line: Area under plasma-time concentration curve when administered at 1 mg/kg dose. Format: ADME, organism-based. Also noted: dose 1 mg/kg. The settings on record: rat.
A short description of series [7]: cells. The note with it: Homo sapiens.
Series [8] can be described thus: Protein binding was determined in human. Format: ADME.
Series [9] in a line: Log D value at pH 7.4. Format: physicochemical. The note with it: buffer.
A short description of series [10]: Solubility was determined. Format: physicochemical.
Series [11] in a line: Oral bioavailability at 3 mg/kg. It counts as ADME, organism-based. The note with it: rat, in vivo, read-out: Bioavailabiility.
The nature of series [12]: Volume distribution after iv administration of 1 mg/kg. More on the design: dose 1 mg/kg, route intravenous. The note with it: rat, in vivo, read-out: Distribution. Format: ADME, organism-based.

Molecules are shown by their SMILES. Values after ≈ are worked out from the molar mass of the structure shown.

Sequence of Mitogen-activated protein kinase 14 (Q16539 whole entry): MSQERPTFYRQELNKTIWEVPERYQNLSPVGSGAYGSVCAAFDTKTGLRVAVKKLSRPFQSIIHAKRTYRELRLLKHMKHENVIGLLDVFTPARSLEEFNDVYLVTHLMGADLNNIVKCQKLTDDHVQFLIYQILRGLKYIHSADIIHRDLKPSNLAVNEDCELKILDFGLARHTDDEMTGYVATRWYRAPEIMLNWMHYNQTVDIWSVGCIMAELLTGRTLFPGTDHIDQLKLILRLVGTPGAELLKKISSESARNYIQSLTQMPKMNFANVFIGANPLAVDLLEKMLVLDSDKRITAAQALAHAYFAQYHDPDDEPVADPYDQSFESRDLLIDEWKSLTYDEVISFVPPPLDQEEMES

As to `Cc1ccc(NC(=O)c2cccc(N3CCOCC3)c2)cc1NC(=O)c1ccc(OCc2ccncc2)cc1`, the inhibition in vivo (in general, the change of the read-out against control, counted positive when it falls) at 10 mg/kg in series [1] (dose 10 mg/kg) amounted to 43%. The IC50 – broadly, the concentration that gives 50% inhibition – in [2] stood at 20 nM; in series [3] it was 3300 nM. This compound showed an inhibition in vivo at 30 mg/kg in [4] (dose 30 mg/kg) of 75%. Besides, the inhibition in vivo at 3 mg/kg in series [5] (dose 3 mg/kg) was determined as 14%. In addition, in [6], the AUC (commonly concentration integrated over time) was 0.13 µM·h.

Turning to `Cc1ccc(NC(=O)c2cc(F)cc(N3CCOCC3)c2)cc1NC(=O)c1ccc(OCc2cscn2)cc1`, the inhibition in vivo at 10 mg/kg in series [1] was found to be 37%. For the same compound, the results for the IC50 in [2] and in [3] were 10 nM and 2500 nM, respectively. In series [4], this compound yielded an inhibition in vivo at 30 mg/kg of 81%. Also, in series [6], the area under the curve (AUC) came to 0.71 µM·h.

Turning to `C[S+]([O-])c1ccc(-c2nc(-c3ccc(F)cc3)c(-c3ccncc3)[nH]2)cc1` (centres undefined) [SB-203580], 10 mg/kg produced 47% inhibition in vivo in series [1]. Besides, in [4], 30 mg/kg produced 50% inhibition in vivo. Further, testing at 3 mg/kg in series [5] gave an inhibition in vivo of 0%.

On to `COc1ccc(C(=O)N(C)c2cc(NC(=O)c3cccc(N(C)C)c3)ccc2C)cc1OC`, for which, in series [2], the half-maximal inhibitory concentration (IC50) is more than 20000 nM.

For `COc1ccc(C(=O)Nc2cccc(NC(=O)c3cccc(N(C)C)c3)c2)cc1OC`, the IC50 in series [2] is more than 20000 nM.

Turning to `Cc1ccc(NC(=O)c2cc(F)cc(N3CCOCC3)c2)cc1NC(=O)c1ccc(OCc2ccccn2)cc1`, the half-maximal inhibitory concentration (IC50) in series [2] was 60 nM; in series [3] it was 11200 nM. For the same compound, testing at 30 mg/kg in series [4] (dose 30 mg/kg) gave an inhibition in vivo of 43%. This compound also yielded an exposure (AUC) in [6] of 0.13 µM·h.

Turning to `COc1ccc(C(=O)Nc2cc(NC(=O)c3cccc(N(C)C)c3)ccc2Cl)cc1OC`, the results for the IC50 in [2] and in series [7] were 220 nM and 6400 nM, respectively.

Consider `Cc1nc(COc2ccc(C(=O)Nc3cc(NC(=O)c4cccc(N5CCOCC5)c4)ccc3C)cc2)cs1`, for which, in series [1] (dose 10 mg/kg), the inhibition in vivo at 10 mg/kg was 44%. Also, the IC50 in series [2] stood at 20 nM; in series [3], 14600 nM. This compound displayed an inhibition in vivo at 30 mg/kg in series [4] (dose 30 mg/kg) of 71%. In series [5] (dose 3 mg/kg), the inhibition in vivo at 3 mg/kg stood at 33%. For the same compound, the area under the curve (AUC) in series [6] is 2.03 µM·h.

Consider `Cc1ccc(NC(=O)c2cc(F)cc(N3CCCC3)c2)cc1NC(=O)c1ccc(OCc2ccccn2)cc1`, for which at 10 mg/kg the inhibition in vivo in [1] was 3%. The compound also came in with an inhibition in vivo at 30 mg/kg in series [4] of 7%. The AUC in [6] is 0.07 µM·h.

Take `Cc1ccc(NC(=O)c2cccc(N3CCOCC3)c2)cc1NC(=O)c1ccc(OCc2ccccc2)cc1`: the figures for the IC50 in [2] and in [3] were 30 nM and 40000 nM, respectively.

Turning to `COc1ccc(C(=O)Nc2cc(NC(=O)c3cccc(N(C)C)c3)ccc2F)cc1OC`, the IC50 in series [2] was determined as 1900 nM; in series [7], 22000 nM.

For the compound `COCCOc1ccc(C(=O)Nc2cc(NC(=O)c3cccc(N(C)C)c3)ccc2C)cc1`, the IC50 in series [2] is 270 nM; in series [7] it was 3400 nM.

In [1] (dose 10 mg/kg), `Cc1ccc(NC(=O)c2cc(F)cc(N3CCOCC3)c2)cc1NC(=O)c1ccc(OCc2ccncc2)cc1` yielded an inhibition in vivo at 10 mg/kg of 24%. Besides, the values for the IC50 in series [2] and in series [3] were 10 nM and 3400 nM, respectively. In addition, the inhibition in vivo at 30 mg/kg in [4] (dose 30 mg/kg) was found to be 40%. In [6], the exposure (AUC) was less than 0.02 µM·h.

For the compound `CCOc1ccc(C(=O)Nc2cc(NC(=O)c3cccc(N(C)C)c3)ccc2C)cc1OCC`, the IC50 in series [2] was 50 nM; in series [7], 4500 nM.

`Cc1ccc(NC(=O)c2cccc(N(C)C)c2)cc1NC(=O)c1ccc(O)cc1` displayed a Binding in series [8] of 99.7%. In addition, the results for the IC50 in series [2] and in series [7] were 180 nM and more than 50000 nM, respectively. Also, the pH-dependent lipophilicity (logD) (usually lipophilicity at a set pH, counting ionised and neutral species) in [9] was 2.7. The concentration in solution in [10] (solubility) was 10 µM (≈ 3.89 µg/mL).

For the compound `CCOCCOc1ccc(C(=O)Nc2cc(NC(=O)c3cccc(N(C)C)c3)ccc2C)cc1`, the half-inhibitory concentration (IC50) in [2] stood at 310 nM; in series [7], 9500 nM.

The compound `Cc1nc(COc2ccc(C(=O)Nc3cc(NC(=O)c4cc(F)cc(N5CCOCC5)c4)ccc3C)cc2)cs1` displayed an inhibition in vivo at 10 mg/kg in series [1] (dose 10 mg/kg) of 27%. For the same compound, the IC50 in series [2] was 90 nM; in series [3] it was 2800 nM. Further, at 30 mg/kg the inhibition in vivo in series [4] (dose 30 mg/kg) was 35%. For the same compound, 3 mg/kg produced 0% inhibition in vivo in series [5] (dose 3 mg/kg). This compound registered an AUC in [6] of 0.73 µM·h.

In series [2], `COc1ccc(C(=O)Nc2ccc(C)c(NC(=O)c3cccc(N(C)C)c3)c2)cc1OC` returned an IC50 of more than 20000 nM.

As to `Cc1ccc(NC(=O)c2ccnc(N3CCOCC3)c2)cc1NC(=O)c1ccc(OCc2ccccn2)cc1`, the bioavailability in series [11] amounted to 46%. For the same compound, the Binding in series [8] was 99.89%. Moreover, the IC50 in series [2] turned out to be 10 nM; in series [3] it was 2800 nM. Besides, the Vd in series [12] stood at 1.6 L/kg. Further, in series [10], the solubility (in general, the concentration that dissolves in the medium under given conditions) is less than 1 µM.

For `COc1ccc(C(=O)Nc2cc(NC(=O)c3cccc(N(C)C)c3)ccc2C)cc1`, the figures for the IC50 in [2] and in [7] were 180 nM and more than 50000 nM, respectively.

With `COc1cc(C(=O)Nc2cc(NC(=O)c3cccc(N(C)C)c3)ccc2C)cc(OC)c1OC`, the half-maximal inhibitory concentration (IC50) in series [2] is 230 nM; in series [7], 3900 nM.

Turning to `Cc1ccc(NC(=O)c2cccc(N3CCOCC3)c2)cc1NC(=O)c1ccc(OCc2ccccn2)cc1`, the inhibition in vivo at 30 mg/kg in series [4] (dose 30 mg/kg) came out at 59%. The compound further returned an exposure (AUC) in [6] of 1.38 µM·h.

In the case of `COc1ccc(C(=O)Nc2cc(NC(=O)c3cccc(N(C)C)c3)ccc2C)cc1OC`, the IC50 in series [2] was 180 nM; in series [7] it was 6400 nM.

`COc1ccc(C(=O)Nc2cc(NC(=O)c3cccc(N(C)C)c3)ccc2C)c(OC)c1`: the IC50 in [2] is 100 nM; in [7], more than 50000 nM.

As to `CCOc1ccc(C(=O)Nc2cc(NC(=O)c3cccc(N(C)C)c3)ccc2C)cc1`, the IC50 in series [2] is 60 nM; in series [7], 7000 nM.

For `Cc1ccc(NC(=O)c2cccc(N3CCOCC3)c2)cc1NC(=O)c1ccc(OCc2cscn2)cc1`, the inhibition in vivo at 10 mg/kg in series [1] amounted to 44%. In addition, testing at 30 mg/kg in series [4] gave an inhibition in vivo of 56%. Further, at 3 mg/kg the inhibition in vivo in [5] was 28%. This compound also had an area under the curve (AUC) in series [6] of less than 0.12 µM·h.

Consider `Cc1ccc(NC(=O)c2cc(N3CCOCC3)cc(C(F)(F)F)c2)cc1NC(=O)c1ccc(OCc2ccccn2)cc1`, for which, in series [1] (dose 10 mg/kg), 10 mg/kg produced 4% inhibition in vivo. Moreover, the IC50 in series [2] stood at 20 nM; in series [3], 10200 nM. Besides, the inhibition in vivo at 30 mg/kg in series [4] (dose 30 mg/kg) was 55%. Besides, in series [6], the exposure (AUC) was 0.04 µM·h.

For `Cc1ccc(NC(=O)c2cccc(N3CCOCC3)c2)cc1NC(=O)c1ccc(OCc2cccnc2)cc1`, the IC50 amounted to 90 nM in [2] and 14700 nM in series [3].

As to `COc1ccc(C(=O)Nc2cc(NC(=O)c3cccc(N(C)C)c3)ccc2Br)cc1OC`, the IC50 in [2] amounted to 340 nM; in [7] it was 9500 nM.

The values above are taken from ChEMBL document CHEMBL1137999, “A novel series of p38 MAP kinase inhibitors for the potential treatment of rheumatoid arthritis” (Bioorg Med Chem Lett, 2004).
